Results from patent US9937235B2, “Lipidated peptides as anti-obesity agents” (USTAV ORGANICKE CHEMIE A BIOCHEMIE AKADEMIE VED CR, V.V.I, priority 2012, dated 2018).
Where a SMILES comes first, the peptide text is derived from it. [ ]: non-standard residue; d: D form. The star is where a group is joined. Palmitoyl = CCCCCCCCCCCCCCCC(=O)*; Myristoyl = CCCCCCCCCCCCCC(=O)*; Nle = CCCC[C@H](N)C(=O)O; Dap = NC[C@H](N)C(=O)O

What was measured:
fasted C57BL/6 mice [1] = test: Food intake in fasted mice after SC administration; assay type: in vivo, mouse; details: for food intake in fasted mice (in words): SC (peripheral) administration; for food intake / % control: SC administration; for % control: food intake vs saline
Method in brief: (§1)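 Male C57BL/6 mice, food-deprived 17 h, received saline, PrRP or lipidated analogs either SC at 1-10 mg/kg or ICV into the third ventricle at 4 nmol/mouse.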

[2] = system: Fos immunoreactivity in Arc, PVN and NTS; test: Fos immunohistochemistry after SC administration; assay type: in vivo, mouse; details: 90 minutes after SC 5 mg/kg, fasted mice
Method: For Fos immunohistochemical processing, overnight fasted mice (n=5 mice/group) were treated SC with saline, [Dpr^1]PrRP31, [Dpr(oct)^1]PrRP31, [Dpr(myr)^1]PrRP31 or [Dpr(palm)^1]PrRP31 (dose 5 mg/kg). Ninety minutes after SC injection, the mice were deeply anesthetized with pentobarbital (50 mg/kg, IP) and perfused transcardially with 0.1 M phosphate buffer (PB, pH 7.4) containing 4% paraformaldehyde, 0.1% glutaraldehyde, and 10% picric acid (w/w). Then the brains were removed, postfixed in the same fixative overnight at 4° C., and infiltrated with 30% sucrose in 0.1 M PB for 48 h at 4° C. Before sectioning, the brains were rapidly (20 sec) frozen in cold isopentane (−30/−40° C.) and placed into a Reichert cryocut device adjusted to −16° C. for 1 h. 30 μm coronal sections were cut from the brains and collected as free floating in cold (4° C.) PB. […]
An identical set of mice was used for determination of Fos immunoreactivity in NTS, PVN, and Arc. […] Quantitative assessment was performed from the images captured with a Canon digital camera (PowerShot S40) and Leica DMLS light microscope in a computer screen obtained from 5-6 brain sections per animal. […] The counting of Fos-positive neurons was done under blinded conditions (the counted slides from each animal were analyzed independently and randomly and encoded by other person).

fasted C57BL/6 mice [3] = test: Food intake in fasted mice after ICV administration; assay type: in vivo; details: 4 nmol/mouse; for % control: food intake vs saline
Method in brief: as §1

SMILES | food intake in fasted mice (in words) (fasted C57BL/6 mice [1]) | dose dependence of the lowering of food intake (fasted C57BL/6 mice [1]; SC administration, 1, 2, 5 and 10 mg/kg, FIG. 5 and 6) | food intake (fasted C57BL/6 mice [1]; 45 minutes, 10 mg/kg) [g] | % control (fasted C57BL/6 mice [1]; 45 minutes, 10 mg/kg) [%] | food intake (fasted C57BL/6 mice [1]; 300 minutes, 10 mg/kg) [g] | % control (fasted C57BL/6 mice [1]; 300 minutes, 10 mg/kg) [%] | Neural activity, Fos immunoreactivity [2] | food intake (fasted C57BL/6 mice [3]; 45 minutes) [g] | % control (fasted C57BL/6 mice [3]; 45 minutes) [%] | food intake (fasted C57BL/6 mice [3]; 300 minutes) [g] | % control (fasted C57BL/6 mice [3]; 300 minutes) [%] | food intake (fasted C57BL/6 mice [1]; 45 minutes, 5 mg/kg) [g] | % control (fasted C57BL/6 mice [1]; 45 minutes, 5 mg/kg) [%] | food intake (fasted C57BL/6 mice [1]; 300 minutes, 5 mg/kg) [g] | % control (fasted C57BL/6 mice [1]; 300 minutes, 5 mg/kg) [%]
CCCCCCCCCCCCCC(=O)NC[C@H](N)C(=O)N[C@@H](CCCNC(=N)N)C(=O)N[C@@H](C)C(=O)N[C@@H](Cc1c[nH]cn1)C(=O)N[C@@H](CCC(N)=O)C(=O)N[C@@H](Cc1c[nH]cn1)C(=O)N[C@@H](CO)C(=O)N[C@@H](CCCC)C(=O)N[C@@H](CCC(=O)O)C(=O)N[C@H](C(=O)N[C@@H](CCCNC(=N)N)C(=O)N[C@H](C(=O)N1CCC[C@H]1C(=O)N[C@@H](CC(=O)O)C(=O)N[C@H](C(=O)N[C@@H](CC(N)=O)C(=O)N1CCC[C@H]1C(=O)N[C@@H](C)C(=O)N[C@@H](Cc1c[nH]c2ccccc12)C(=O)N[C@@H](Cc1ccc(O)cc1)C(=O)N[C@H](C(=O)NCC(=O)N[C@@H](CCCNC(=N)N)C(=O)NCC(=O)N[C@H](C(=O)N[C@@H](CCCNC(=N)N)C(=O)N1CCC[C@H]1C(=O)N[C@H](C(=O)NCC(=O)N[C@@H](CCCNC(=N)N)C(=O)N[C@@H](Cc1ccccc1)C(N)=O)C(C)C)[C@@H](C)CC)[C@@H](C)O)[C@@H](C)CC)[C@@H](C)O)[C@@H](C)O [Analog 5] (H-[Dap](Myristoyl)RAHQHS[Nle]ETRTPDINPAWYTGRGIRPVGRF-NH2) | significantly decreased food intake | dose dependent | 0.05 | 25 | 0.18 | 21 | significantly increased | 0.35 | 62 | 0.96 | 73 | – | – | – | –
CCCCCCCCCCCCCCCC(=O)NC[C@H](N)C(=O)N[C@@H](CCCNC(=N)N)C(=O)N[C@@H](C)C(=O)N[C@@H](Cc1c[nH]cn1)C(=O)N[C@@H](CCC(N)=O)C(=O)N[C@@H](Cc1c[nH]cn1)C(=O)N[C@@H](CO)C(=O)N[C@@H](CCCC)C(=O)N[C@@H](CCC(=O)O)C(=O)N[C@H](C(=O)N[C@@H](CCCNC(=N)N)C(=O)N[C@H](C(=O)N1CCC[C@H]1C(=O)N[C@@H](CC(=O)O)C(=O)N[C@H](C(=O)N[C@@H](CC(N)=O)C(=O)N1CCC[C@H]1C(=O)N[C@@H](C)C(=O)N[C@@H](Cc1c[nH]c2ccccc12)C(=O)N[C@@H](Cc1ccc(O)cc1)C(=O)N[C@H](C(=O)NCC(=O)N[C@@H](CCCNC(=N)N)C(=O)NCC(=O)N[C@H](C(=O)N[C@@H](CCCNC(=N)N)C(=O)N1CCC[C@H]1C(=O)N[C@H](C(=O)NCC(=O)N[C@@H](CCCNC(=N)N)C(=O)N[C@@H](Cc1ccccc1)C(N)=O)C(C)C)[C@@H](C)CC)[C@@H](C)O)[C@@H](C)CC)[C@@H](C)O)[C@@H](C)O [Analog 6] (H-[Dap](Palmitoyl)RAHQHS[Nle]ETRTPDINPAWYTGRGIRPVGRF-NH2) | significantly decreased food intake | – | – | – | – | – | significantly increased | 0.38 | 71 | 1.3 | 100 | 0 | 0 | 0.14 | 14
